In US20140018750A1, “METHOD AND DEVICE OR PHARMACEUTICAL COMPOSITIONS FOR THE TRANSDERMAL DELIVERY OF MAGNESIUM DIRECTLY TO THE NEUROMUSCULAR JUNCTION FOR THE TREATMENT OF MUSCLE CRAMPING” (priority 2012, published 2014):

How the values were obtained:
sciatica = settings: Patient Michael, cream composed of aloe combined with 8% by MW of magnesium sulfate

In the case of `O=S(=O)([O-])[O-].[Mg+2]` [magnesium sulfate], the time to relief (muscle cramping; Patient Doris, reoccurring severe muscle cramps in the right foot, liquid solution, 8% by MW of magnesium sulfate, applied to the area) is reported as “three”, the “time until began to experience relief” value (muscle cramping; Patient Henry, severe muscle cramps in the upper right arm after exertion, liquid form of 8% by MW of magnesium sulfate applied directly) is reported as “three” and the “time to relief from both symptoms” value (muscle cramping; Patient Norma, severe leg cramps with restless leg syndrome, towel soaked in composition with 8% by MW of magnesium sulfate applied to affected area) is reported as “four”. The time to relief (sciatica) was “six”.
